Source: patent publication US9272978B2, “Hydroxy acid ester compound of substituted phenol, preparation method and medical use thereof” (West China Hospital, Sichuan University, priority 2010, dated 2016)

Key:
[1] = mouse, rat or rabbit plasma, 37° C., 10 mg/ml solution, 0 min to 4 h, HPLC
Method: Three parallel solutions of propofol hydroxybutyrate of Example 1 with a concentration of 10 mg/ml were prepared, added into and mixed with the mouse, rat or rabbit plasma, which was pre-placed in water bath (37° C.), respectively.
Three parallel solutions of propofol hydroxyvalerate of Example 3 with a concentration of 10 mg/ml were prepared, added into and mixed with mouse, rat or rabbit plasma, which was pre-placed in water bath (37° C.), respectively.

Kunming mice = conditions: tail vein injection; for disappearance time of FRR (onset time) / recovery time (recovery of FRR): during determination of ED50; for Median effective dose (ED50), disappearance of forepaw righting reflex: up-and-down method
Method: (§1) 60 Kunming mice with half males and half females were randomly divided into the drug test group (propofol hydroxybutyrate of the present invention) (n=30) and the Diprivan™ control group (positive control drug Diprivan™) (n=30). Median effective doses (ED50) of the substituted phenol hydroxy acid ester and Diprivan™ were determined by the up-and-down method. In the test, the mice were injected with the drugs through the tail veins, with the disappearance of the forepaw righting reflex (FRR) of the mice as a judgment index of the end point of anesthesia; the recovery of FRR of the mice as an index of recovery from anesthesia.
as §1, with “hydroxyvalerate” for “hydroxybutyrate”, “FRR” for “the forepaw righting reflex (FRR)”

[2] = disclosed in WO200213810; cited from earlier work
[3] = disclosed in WO200213810; cited from earlier work; remark: listed apart in the source

SMILES | in vitro decomposition in the plasma into the active compound propofol [1] | anesthetic effect (Kunming mice) | disappearance time of FRR (onset time) (Kunming mice) | recovery time (recovery of FRR) (Kunming mice) | Median effective dose (ED50), disappearance of forepaw righting reflex (Kunming mice) | water-solubility [2] | stability in aqueous solution [3]
CC(C)c1cccc(C(C)C)c1OC(=O)CCCO [propofol hydroxybutyrate, propofol ω-hydroxybutyrate] | can be rapidly decomposed into the active compound propofol | definite and reversible anesthetic effect | 45.3 ± 12.3 s | 235.6 ± 67.9 s | 52 mg/kg | – | –
CC(C)c1cccc(C(C)C)c1OC(=O)CCCCO [propofol hydroxyvalerate, propofol ω-hydroxyvalerate] | can be rapidly decomposed into the active compound propofol | – | 46.1 ± 9.5 s | 256.1 ± 61.2 s | 60 mg/kg | – | –
CC(C)c1cccc(C(C)C)c1OC(=O)CCC(=O)[O-].[Na+] [propofol succinic acid monoester sodium salt] | – | – | – | – | – | high water-solubility | unstable in aqueous solution
